Where “and” joins values, the source holds several entries; their conditions need not be identical. Equal values may be shown once. Toxic doses and inconclusive results are not listed.
Tested on: CD2F1 mice, L1210 leukemia ip, survival T/C
Test: NCI In Vivo Anticancer Drug Screen. Data for tumor model L1210 Leukemia (intraperitoneal) in CD2F1 (CDF1) mice
Details: higher = longer survival
Procedure, shortened: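 Compound-dosed mice with transplantable tumor versus matched vehicle controls; endpoint ratio T/C reported.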

Nc1ncn(C2OC(CO)C(O)C2O)c(=O)n1 (configuration not stated) was tested, and the T/C (endpoint: mean survival time, dose: 1.56 mg/kg/injection, schedule: Q01DX009 (ip), vehicle: saline) was 155 % of control and 166 % of control, the T/C (endpoint: mean survival time, dose: 1.56 mg/kg/injection, schedule: Q04DX003 (ip), vehicle: saline) was 117 % of control and the T/C (endpoint: mean survival time, dose: 3.12 mg/kg/injection, schedule: Q01DX009 (ip), vehicle: saline) was 176 % of control. For the same compound, the T/C (endpoint: mean survival time, dose: 3.12 mg/kg/injection, schedule: Q03HX024 (ip), vehicle: saline) was 296 % of control, the T/C (endpoint: mean survival time, dose: 3.12 mg/kg/injection, schedule: Q04DX003 (ip), vehicle: saline) was 119 % of control and 120 % of control and 123 % of control and the T/C (endpoint: mean survival time, dose: 6.25 mg/kg/injection, schedule: Q03HX024 (ip), vehicle: saline) was 325 % of control. The T/C (endpoint: mean survival time, dose: 6.25 mg/kg/injection, schedule: Q04DX003 (ip), vehicle: saline) was 121 % of control and 123 % of control, the T/C (endpoint: mean survival time, dose: 10.0 mg/kg/injection, schedule: Q04DX003 (ip), vehicle: saline) was 112 % of control and the T/C (endpoint: mean survival time, dose: 12.5 mg/kg/injection, schedule: Q03HX024 (ip), vehicle: saline) was 353 % of control. For the same compound, the T/C (endpoint: mean survival time, dose: 12.5 mg/kg/injection, schedule: Q04DX003 (ip), vehicle: saline) was 151 % of control, the T/C (endpoint: mean survival time, dose: 25.0 mg/kg/injection, schedule: Q03HX024 (ip), vehicle: saline) was 295 % of control and the T/C (endpoint: mean survival time, dose: 25.0 mg/kg/injection, schedule: Q04DX003 (ip), vehicle: saline) was 167 % of control. The T/C (endpoint: mean survival time, dose: 50.0 mg/kg/injection, schedule: Q03HX024 (ip), vehicle: saline) was 248 % of control, the T/C (endpoint: mean survival time, dose: 50.0 mg/kg/injection, schedule: Q04DX003 (ip), vehicle: saline) was 163 % of control and 173 % of control and the T/C (endpoint: mean survival time, dose: 100.0 mg/kg/injection, schedule: Q03HX024 (ip), vehicle: saline) was 124 % of control. For the same compound, the T/C (endpoint: mean survival time, dose: 200.0 mg/kg/injection, schedule: Q04DX003 (ip), vehicle: saline) was 182 % of control and 190 % of control and 200 % of control, the T/C (endpoint: mean survival time, dose: 400.0 mg/kg/injection, schedule: Q04DX003 (ip), vehicle: saline) was 222 % of control and the T/C (endpoint: mean survival time, dose: 800.0 mg/kg/injection, schedule: Q04DX003 (ip), vehicle: saline) was 269 % of control. The T/C (endpoint: mean survival time, dose: 1600.0 mg/kg/injection, schedule: Q04DX003 (ip), vehicle: saline) was 222 % of control, the T/C (endpoint: median survival time, dose: 1.56 mg/kg/injection, schedule: Q01DX009 (ip), vehicle: other) was 156 % of control and the T/C (endpoint: median survival time, dose: 2.3 mg/kg/injection, schedule: Q03HX024 (ip), vehicle: DMSO) was 292 % of control. For the same compound, the T/C (endpoint: median survival time, dose: 3.12 mg/kg/injection, schedule: Q01DX009 (ip), vehicle: other) was 163 % of control and 172 % of control, the T/C (endpoint: median survival time, dose: 3.12 mg/kg/injection, schedule: Q01DX009 (ip), vehicle: saline) was 162 % of control and 177 % of control and the T/C (endpoint: median survival time, dose: 4.0 mg/kg/injection, schedule: Q03HX024 (ip), vehicle: saline) was 348 % of control. The T/C (endpoint: median survival time, dose: 6.25 mg/kg/injection, schedule: Q01DX009 (ip), vehicle: DMSO) was 210 % of control and 228 % of control, the T/C (endpoint: median survival time, dose: 6.25 mg/kg/injection, schedule: Q01DX009 (ip), vehicle: other) was 192 % of control and 193 % of control and the T/C (endpoint: median survival time, dose: 6.25 mg/kg/injection, schedule: Q01DX009 (ip), vehicle: saline) was 198 % of control and 202 % of control and 212 % of control. For the same compound, the T/C (endpoint: median survival time, dose: 6.25 mg/kg/injection, schedule: Q01DX009 (oral), vehicle: DMSO) was 191 % of control, the T/C (endpoint: median survival time, dose: 7.0 mg/kg/injection, schedule: Q03HX008 (ip), vehicle: DMSO) was 179 % of control and the T/C (endpoint: median survival time, dose: 11.2 mg/kg/injection, schedule: Q01DX005 (ip), vehicle: DMSO) was 181 % of control. The T/C (endpoint: median survival time, dose: 11.2 mg/kg/injection, schedule: Q01DX005 (iv), vehicle: DMSO) was 176 % of control, the T/C (endpoint: median survival time, dose: 12.5 mg/kg/injection, schedule: Q01DX009 (ip), vehicle: DMSO) was 224 % of control and 258 % of control and the T/C (endpoint: median survival time, dose: 12.5 mg/kg/injection, schedule: Q01DX009 (ip), vehicle: other) was 214 % of control and 219 % of control. For the same compound, the T/C (endpoint: median survival time, dose: 12.5 mg/kg/injection, schedule: Q01DX009 (oral), vehicle: DMSO) was 225 % of control, the T/C (endpoint: median survival time, dose: 14.0 mg/kg/injection, schedule: Q03HX008 (ip), vehicle: DMSO) was 174 % of control and the T/C (endpoint: median survival time, dose: 22.5 mg/kg/injection, schedule: Q01DX005 (ip), vehicle: DMSO) was 187 % of control. For the same compound, the T/C (endpoint: median survival time, dose: 22.5 mg/kg/injection, schedule: Q01DX005 (iv), vehicle: DMSO) was 201 % of control, the T/C (endpoint: median survival time, dose: 25.0 mg/kg/injection, schedule: Q01DX009 (ip), vehicle: DMSO) was 260 % of control and 273 % of control and the T/C (endpoint: median survival time, dose: 25.0 mg/kg/injection, schedule: Q01DX009 (ip), vehicle: other) was 237 % of control and 265 % of control. For the same compound, the T/C (endpoint: median survival time, dose: 25.0 mg/kg/injection, schedule: Q01DX009 (oral), vehicle: DMSO) was 233 % of control, the T/C (endpoint: median survival time, dose: 28.1 mg/kg/injection, schedule: Q03HX008 (ip), vehicle: DMSO) was 186 % of control and the T/C (endpoint: median survival time, dose: 30.0 mg/kg/injection, schedule: Q01DX009 (ip), vehicle: saline) was 267 % of control and 278 % of control. For the same compound, the T/C (endpoint: median survival time, dose: 37.5 mg/kg/injection, schedule: Q04DX003 (ip), vehicle: DMSO) was 163 % of control, the T/C (endpoint: median survival time, dose: 44.0 mg/kg/injection, schedule: Q01DX009 (ip), vehicle: saline) was 278 % of control and 284 % of control and the T/C (endpoint: median survival time, dose: 45.0 mg/kg/injection, schedule: Q01DX005 (ip), vehicle: DMSO) was 208 % of control. The T/C (endpoint: median survival time, dose: 45.0 mg/kg/injection, schedule: Q01DX005 (iv), vehicle: DMSO) was 212 % of control, the T/C (endpoint: median survival time, dose: 50.0 mg/kg/injection, schedule: Q01DX009 (ip), vehicle: DMSO) was 289 % of control and 310 % of control and the T/C (endpoint: median survival time, dose: 50.0 mg/kg/injection, schedule: Q01DX009 (ip), vehicle: other) was 262 % of control and 289 % of control. The T/C (endpoint: median survival time, dose: 50.0 mg/kg/injection, schedule: Q01DX009 (oral), vehicle: DMSO) was 266 % of control, the T/C (endpoint: median survival time, dose: 56.2 mg/kg/injection, schedule: Q01DX001 (ip), vehicle: DMSO) was 123 % of control and the T/C (endpoint: median survival time, dose: 56.2 mg/kg/injection, schedule: Q03HX008 (ip), vehicle: DMSO) was 191 % of control. For the same compound, the T/C (endpoint: median survival time, dose: 67.0 mg/kg/injection, schedule: Q01DX009 (ip), vehicle: saline) was 326 % of control and 328 % of control, the T/C (endpoint: median survival time, dose: 75.0 mg/kg/injection, schedule: Q04DX003 (ip), vehicle: DMSO) was 173 % of control and the T/C (endpoint: median survival time, dose: 90.0 mg/kg/injection, schedule: Q01DX005 (ip), vehicle: DMSO) was 221 % of control. For the same compound, the T/C (endpoint: median survival time, dose: 90.0 mg/kg/injection, schedule: Q01DX005 (iv), vehicle: DMSO) was 242 % of control, the T/C (endpoint: median survival time, dose: 100.0 mg/kg/injection, schedule: Q01DX009 (ip), vehicle: DMSO) was 172 % of control and the T/C (endpoint: median survival time, dose: 100.0 mg/kg/injection, schedule: Q01DX009 (ip), vehicle: other) was 150 % of control and 277 % of control. The T/C (endpoint: median survival time, dose: 100.0 mg/kg/injection, schedule: Q01DX009 (oral), vehicle: DMSO) was 310 % of control, the T/C (endpoint: median survival time, dose: 112.5 mg/kg/injection, schedule: Q03HX008 (ip), vehicle: DMSO) was 198 % of control and the T/C (endpoint: median survival time, dose: 150.0 mg/kg/injection, schedule: Q04DX003 (ip), vehicle: DMSO) was 198 % of control. The T/C (endpoint: median survival time, dose: 180.0 mg/kg/injection, schedule: Q01DX005 (ip), vehicle: DMSO) was 242 % of control, the T/C (endpoint: median survival time, dose: 180.0 mg/kg/injection, schedule: Q01DX005 (iv), vehicle: DMSO) was 276 % of control and the T/C (endpoint: median survival time, dose: 200.0 mg/kg/injection, schedule: Q01DX009 (ip), vehicle: DMSO) was 123 % of control. For the same compound, the T/C (endpoint: median survival time, dose: 225.0 mg/kg/injection, schedule: Q01DX001 (iv), vehicle: DMSO) was 157 % of control, the T/C (endpoint: median survival time, dose: 225.0 mg/kg/injection, schedule: Q03HX008 (ip), vehicle: DMSO) was 180 % of control and the T/C (endpoint: median survival time, dose: 300.0 mg/kg/injection, schedule: Q04DX003 (ip), vehicle: DMSO) was 243 % of control. The T/C (endpoint: median survival time, dose: 400.0 mg/kg/injection, schedule: Q01DX009 (ip), vehicle: DMSO) was 117 % of control, the T/C (endpoint: median survival time, dose: 400.0 mg/kg/injection, schedule: Q01DX009 (ip), vehicle: saline) was 113 % of control and the T/C (endpoint: median survival time, dose: 400.0 mg/kg/injection, schedule: Q01DX009 (oral), vehicle: DMSO) was 117 % of control. For the same compound, the T/C (endpoint: median survival time, dose: 600.0 mg/kg/injection, schedule: Q04DX003 (ip), vehicle: DMSO) was 252 % of control, the T/C (endpoint: median survival time, dose: 900.0 mg/kg/injection, schedule: Q01DX001 (ip), vehicle: DMSO) was 162 % of control and the T/C (endpoint: median survival time, dose: 1200.0 mg/kg/injection, schedule: Q04DX003 (ip), vehicle: DMSO) was 284 % of control. The T/C (endpoint: median survival time, dose: 1800.0 mg/kg/injection, schedule: Q01DX001 (ip), vehicle: DMSO) was 191 % of control, the T/C (endpoint: median survival time, dose: 2400.0 mg/kg/injection, schedule: Q04DX003 (ip), vehicle: DMSO) was 290 % of control and the T/C (endpoint: median survival time, dose: 3600.0 mg/kg/injection, schedule: Q01DX001 (ip), vehicle: DMSO) was 223 % of control.

In the case of CC(=O)Nc1nc(Br)c2ccccc2c1-c1ccc(N(CCOS(C)(=O)=O)CCOS(C)(=O)=O)cc1, the T/C (endpoint: mean survival time, dose: 12.5 mg/kg/injection, schedule: Q04DX003 (ip), vehicle: DMSO) is reported as 105 % of control, the T/C (endpoint: mean survival time, dose: 25.0 mg/kg/injection, schedule: Q04DX003 (ip), vehicle: DMSO) is reported as 105 % of control and the T/C (endpoint: mean survival time, dose: 50.0 mg/kg/injection, schedule: Q04DX003 (ip), vehicle: DMSO) is reported as 110 % of control. For the same compound, the T/C (endpoint: mean survival time, dose: 100.0 mg/kg/injection, schedule: Q04DX003 (ip), vehicle: DMSO) was 121 % of control.

In the case of OC(CS)C(c1ccccc1)c1ccccc1 (configuration not stated), the T/C (endpoint: mean survival time, dose: 100.0 mg/kg/injection, schedule: Q04DX003 (ip), vehicle: saline with Tween-80) is reported as 98 % of control, the T/C (endpoint: mean survival time, dose: 200.0 mg/kg/injection, schedule: Q04DX003 (ip), vehicle: saline with Tween-80) is reported as 93 % of control and the T/C (endpoint: mean survival time, dose: 400.0 mg/kg/injection, schedule: Q04DX003 (ip), vehicle: saline with Tween-80) is reported as 96 % of control.

Source: PubChem BioAssay AID256 (DTP/NCI, 2004)
